Assay results as given in patent US12390437B2, “Itaconic acid derivatives and uses thereof intreating an inflammatory disease or a disease associated with an undesirable immune response” (Sitryx Therapeutics Limited, priority 2019, dated 2025).

Test system: IL-1β cytokine output from THP-1s
Test: THP-1 AlphaLISA IL-1β cytokine assay
Format: cell-based, human
Settings: Homo sapiens, THP-1, PMA-differentiated THP-1 cells, LPS 24 hr then Nigericin 1 hour; read-out: IL-1β (IC50)
Procedure, shortened: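 PMA-differentiated (72 h) THP-1 cells pretreated 30 min with compound, LPS-stimulated 24 h, then nigericin 1 h at 37 °C. Supernatant IL-1β and IL-6 by AlphaLISA; % inhibition normalised to ±LPS controls, IC50 from concentration-response curves.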

| SMILES | IC50 [µM] |
| --- | --- |
| C=C(CC(=O)O[C@H](C)CCCCCC)C(=O)OCC(=O)O [Example 112, (R)-2-((2-methylene-4-(octan-2-yloxy)-4-oxobutanoyl)oxy)acetic acid] | 14.6 |

Same assay, conditions: Homo sapiens, THP-1, Table 10; assay of Biological Example 1 (THP-1); read-out: IL-1β (IC50)

| SMILES | IC50 [µM] |
| --- | --- |
| C=C(CC(=O)O[C@H](C)CCCCCC)C(=O)OCC(=O)O [Example 112, (R)-2-((2-methylene-4-(octan-2-yloxy)-4-oxobutanoyl)oxy)acetic acid] | 14.6 |

Test system: not listed separately
Test: Mouse pharmacokinetic study, intravenous dosing
Format: in vivo
Settings: male, C57BL/6, mouse, iv; plasma, 10 mg/kg i.v., time 0.05 h; read-out: Parent compound concentration following intravenous administration
Procedure, shortened: (§1)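 Male C57BL/6 mice (6-8 weeks, fed ad libitum) received 10 mg/kg IV by tail vein in 10% DMSO/HP-β-CD vehicle, or 100 mg/kg by oral gavage in DMSO/HPMC/Tween 80. Facial-vein blood was taken at 9 time points (N=3 each) into K2EDTA; plasma concentrations were measured by LC-MS/MS.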

| SMILES | concentration at 0.05 h [ng/mL] |
| --- | --- |
| C=C(CC(=O)O[C@H](C)CCCCCC)C(=O)OCC(=O)O [Example 112, (R)-2-((2-methylene-4-(octan-2-yloxy)-4-oxobutanoyl)oxy)acetic acid] | 63500 |

Same assay, conditions: male, C57BL/6, mouse, iv; plasma, 10 mg/kg i.v., time 0.133 h; read-out: Parent compound concentration following intravenous administration

| SMILES | concentration at 0.133 h [ng/mL] |
| --- | --- |
| C=C(CC(=O)O[C@H](C)CCCCCC)C(=O)OCC(=O)O [Example 112, (R)-2-((2-methylene-4-(octan-2-yloxy)-4-oxobutanoyl)oxy)acetic acid] | 40100 |

Same assay, conditions: male, C57BL/6, mouse, iv; plasma, 10 mg/kg i.v., time 0.25 h; read-out: Parent compound concentration following intravenous administration

| SMILES | concentration at 0.25 h [ng/mL] |
| --- | --- |
| C=C(CC(=O)O[C@H](C)CCCCCC)C(=O)OCC(=O)O [Example 112, (R)-2-((2-methylene-4-(octan-2-yloxy)-4-oxobutanoyl)oxy)acetic acid] | 36200 |

Same assay, conditions: male, C57BL/6, mouse, iv; plasma, 10 mg/kg i.v., time 0.5 h; read-out: Parent compound concentration following intravenous administration

| SMILES | concentration at 0.5 h [ng/mL] |
| --- | --- |
| C=C(CC(=O)O[C@H](C)CCCCCC)C(=O)OCC(=O)O [Example 112, (R)-2-((2-methylene-4-(octan-2-yloxy)-4-oxobutanoyl)oxy)acetic acid] | 23500 |

Same assay, conditions: male, C57BL/6, mouse, iv; plasma, 10 mg/kg i.v., time 1 h; read-out: Parent compound concentration following intravenous administration

| SMILES | concentration at 1 h [ng/mL] |
| --- | --- |
| C=C(CC(=O)O[C@H](C)CCCCCC)C(=O)OCC(=O)O [Example 112, (R)-2-((2-methylene-4-(octan-2-yloxy)-4-oxobutanoyl)oxy)acetic acid] | 13000 |

Same assay, conditions: male, C57BL/6, mouse, iv; plasma, 10 mg/kg i.v., time 2 h; read-out: Parent compound concentration following intravenous administration

| SMILES | concentration at 2 h [ng/mL] |
| --- | --- |
| C=C(CC(=O)O[C@H](C)CCCCCC)C(=O)OCC(=O)O [Example 112, (R)-2-((2-methylene-4-(octan-2-yloxy)-4-oxobutanoyl)oxy)acetic acid] | 3540 |

Same assay, conditions: male, C57BL/6, mouse, iv; plasma, 10 mg/kg i.v., time 4 h; read-out: Parent compound concentration following intravenous administration

| SMILES | concentration at 4 h [ng/mL] |
| --- | --- |
| C=C(CC(=O)O[C@H](C)CCCCCC)C(=O)OCC(=O)O [Example 112, (R)-2-((2-methylene-4-(octan-2-yloxy)-4-oxobutanoyl)oxy)acetic acid] | 1510 |

Same assay, conditions: male, C57BL/6, mouse, iv; plasma, 10 mg/kg i.v., time 6 h; read-out: Parent compound concentration following intravenous administration

| SMILES | concentration at 6 h [ng/mL] |
| --- | --- |
| C=C(CC(=O)O[C@H](C)CCCCCC)C(=O)OCC(=O)O [Example 112, (R)-2-((2-methylene-4-(octan-2-yloxy)-4-oxobutanoyl)oxy)acetic acid] | 424 |

Same assay, conditions: male, C57BL/6, mouse, iv; plasma, 10 mg/kg i.v., time 8 h; read-out: Parent compound concentration following intravenous administration

| SMILES | concentration at 8 h [ng/mL] |
| --- | --- |
| C=C(CC(=O)O[C@H](C)CCCCCC)C(=O)OCC(=O)O [Example 112, (R)-2-((2-methylene-4-(octan-2-yloxy)-4-oxobutanoyl)oxy)acetic acid] | 154 |

Test system: not listed separately
Test: Mouse pharmacokinetic study, oral administration
Format: in vivo
Settings: male, C57BL/6, mouse, plasma, po, 100 mg/kg, plasma, male C57BL/6 mice, oral gavage 100 mg/kg, 0.083 h; read-out: Parent compound concentrations following oral administration, Time 0.083 h
Procedure, shortened: as §1

| SMILES | concentration at 0.083 h [ng/mL] |
| --- | --- |
| C=C(CC(=O)O[C@H](C)CCCCCC)C(=O)OCC(=O)O [Example 112, (R)-2-((2-methylene-4-(octan-2-yloxy)-4-oxobutanoyl)oxy)acetic acid] | 79800 |

Same assay, conditions: male, C57BL/6, mouse, plasma, po, 100 mg/kg, plasma, male C57BL/6 mice, oral gavage 100 mg/kg, 0.25 h; read-out: Parent compound concentrations following oral administration, Time 0.25 h

| SMILES | concentration at 0.25 h [ng/mL] |
| --- | --- |
| C=C(CC(=O)O[C@H](C)CCCCCC)C(=O)OCC(=O)O [Example 112, (R)-2-((2-methylene-4-(octan-2-yloxy)-4-oxobutanoyl)oxy)acetic acid] | 64600 |

Same assay, conditions: male, C57BL/6, mouse, plasma, po, 100 mg/kg, plasma, male C57BL/6 mice, oral gavage 100 mg/kg, 0.5 h; read-out: Parent compound concentrations following oral administration, Time 0.5 h

| SMILES | concentration at 0.5 h [ng/mL] |
| --- | --- |
| C=C(CC(=O)O[C@H](C)CCCCCC)C(=O)OCC(=O)O [Example 112, (R)-2-((2-methylene-4-(octan-2-yloxy)-4-oxobutanoyl)oxy)acetic acid] | 72300 |

Same assay, conditions: male, C57BL/6, mouse, plasma, po, 100 mg/kg, plasma, male C57BL/6 mice, oral gavage 100 mg/kg, 1 h; read-out: Parent compound concentrations following oral administration, Time 1 h

| SMILES | concentration at 1 h [ng/mL] |
| --- | --- |
| C=C(CC(=O)O[C@H](C)CCCCCC)C(=O)OCC(=O)O [Example 112, (R)-2-((2-methylene-4-(octan-2-yloxy)-4-oxobutanoyl)oxy)acetic acid] | 49500 |

Same assay, conditions: male, C57BL/6, mouse, plasma, po, 100 mg/kg, plasma, male C57BL/6 mice, oral gavage 100 mg/kg, 2 h; read-out: Parent compound concentrations following oral administration, Time 2 h

| SMILES | concentration at 2 h [ng/mL] |
| --- | --- |
| C=C(CC(=O)O[C@H](C)CCCCCC)C(=O)OCC(=O)O [Example 112, (R)-2-((2-methylene-4-(octan-2-yloxy)-4-oxobutanoyl)oxy)acetic acid] | 31400 |

Same assay, conditions: male, C57BL/6, mouse, plasma, po, 100 mg/kg, plasma, male C57BL/6 mice, oral gavage 100 mg/kg, 4 h; read-out: Parent compound concentrations following oral administration, Time 4 h

| SMILES | concentration at 4 h [ng/mL] |
| --- | --- |
| C=C(CC(=O)O[C@H](C)CCCCCC)C(=O)OCC(=O)O [Example 112, (R)-2-((2-methylene-4-(octan-2-yloxy)-4-oxobutanoyl)oxy)acetic acid] | 21300 |

Same assay, conditions: male, C57BL/6, mouse, plasma, po, 100 mg/kg, plasma, male C57BL/6 mice, oral gavage 100 mg/kg, 6 h; read-out: Parent compound concentrations following oral administration, Time 6 h

| SMILES | concentration at 6 h [ng/mL] |
| --- | --- |
| C=C(CC(=O)O[C@H](C)CCCCCC)C(=O)OCC(=O)O [Example 112, (R)-2-((2-methylene-4-(octan-2-yloxy)-4-oxobutanoyl)oxy)acetic acid] | 6780 |

Same assay, conditions: male, C57BL/6, mouse, plasma, po, 100 mg/kg, plasma, male C57BL/6 mice, oral gavage 100 mg/kg, 8 h; read-out: Parent compound concentrations following oral administration, Time 8 h

| SMILES | concentration at 8 h [ng/mL] |
| --- | --- |
| C=C(CC(=O)O[C@H](C)CCCCCC)C(=O)OCC(=O)O [Example 112, (R)-2-((2-methylene-4-(octan-2-yloxy)-4-oxobutanoyl)oxy)acetic acid] | 12200 |

Same assay, conditions: male, C57BL/6, mouse, plasma, po, 100 mg/kg, plasma, male C57BL/6 mice, oral gavage 100 mg/kg, 24 h; read-out: Parent compound concentrations following oral administration, Time 24 h

| SMILES | concentration at 24 h [ng/mL] |
| --- | --- |
| C=C(CC(=O)O[C@H](C)CCCCCC)C(=O)OCC(=O)O [Example 112, (R)-2-((2-methylene-4-(octan-2-yloxy)-4-oxobutanoyl)oxy)acetic acid] | 25 |

Same assay, conditions: male, C57BL/6, po; mouse plasma, Example 112 dosed orally at 100 mg/kg (Intermediate 8 = metabolite), time 0.083 h; read-out: Example 112 and Intermediate 8 concentrations following oral administration

| SMILES | concentration at 0.083 h [ng/mL] |
| --- | --- |
| C=C(CC(=O)O[C@H](C)CCCCCC)C(=O)OCC(=O)O [Example 112, (R)-2-((2-methylene-4-(octan-2-yloxy)-4-oxobutanoyl)oxy)acetic acid] | 109000 |

Same assay, conditions: male, C57BL/6, po; mouse plasma, Example 112 dosed orally at 100 mg/kg (Intermediate 8 = metabolite), time 0.25 h; read-out: Example 112 and Intermediate 8 concentrations following oral administration

| SMILES | concentration at 0.25 h [ng/mL] |
| --- | --- |
| C=C(CC(=O)O[C@H](C)CCCCCC)C(=O)OCC(=O)O [Example 112, (R)-2-((2-methylene-4-(octan-2-yloxy)-4-oxobutanoyl)oxy)acetic acid] | 116000 |

Same assay, conditions: male, C57BL/6, po; mouse plasma, Example 112 dosed orally at 100 mg/kg (Intermediate 8 = metabolite), time 0.5 h; read-out: Example 112 and Intermediate 8 concentrations following oral administration

| SMILES | concentration at 0.5 h [ng/mL] |
| --- | --- |
| C=C(CC(=O)O[C@H](C)CCCCCC)C(=O)OCC(=O)O [Example 112, (R)-2-((2-methylene-4-(octan-2-yloxy)-4-oxobutanoyl)oxy)acetic acid] | 74200 |

Same assay, conditions: male, C57BL/6, po; mouse plasma, Example 112 dosed orally at 100 mg/kg (Intermediate 8 = metabolite), time 1 h; read-out: Example 112 and Intermediate 8 concentrations following oral administration

| SMILES | concentration at 1 h [ng/mL] |
| --- | --- |
| C=C(CC(=O)O[C@H](C)CCCCCC)C(=O)OCC(=O)O [Example 112, (R)-2-((2-methylene-4-(octan-2-yloxy)-4-oxobutanoyl)oxy)acetic acid] | 27900 |

Same assay, conditions: male, C57BL/6, po; mouse plasma, Example 112 dosed orally at 100 mg/kg (Intermediate 8 = metabolite), time 2 h; read-out: Example 112 and Intermediate 8 concentrations following oral administration

| SMILES | concentration at 2 h [ng/mL] |
| --- | --- |
| C=C(CC(=O)O[C@H](C)CCCCCC)C(=O)OCC(=O)O [Example 112, (R)-2-((2-methylene-4-(octan-2-yloxy)-4-oxobutanoyl)oxy)acetic acid] | 14000 |

Same assay, conditions: male, C57BL/6, po; mouse plasma, Example 112 dosed orally at 100 mg/kg (Intermediate 8 = metabolite), time 4 h; read-out: Example 112 and Intermediate 8 concentrations following oral administration

| SMILES | concentration at 4 h [ng/mL] |
| --- | --- |
| C=C(CC(=O)O[C@H](C)CCCCCC)C(=O)OCC(=O)O [Example 112, (R)-2-((2-methylene-4-(octan-2-yloxy)-4-oxobutanoyl)oxy)acetic acid] | 4880 |

Same assay, conditions: male, C57BL/6, po; mouse plasma, Example 112 dosed orally at 100 mg/kg (Intermediate 8 = metabolite), time 6 h; read-out: Example 112 and Intermediate 8 concentrations following oral administration

| SMILES | concentration at 6 h [ng/mL] |
| --- | --- |
| C=C(CC(=O)O[C@H](C)CCCCCC)C(=O)OCC(=O)O [Example 112, (R)-2-((2-methylene-4-(octan-2-yloxy)-4-oxobutanoyl)oxy)acetic acid] | 4020 |

Same assay, conditions: male, C57BL/6, po; mouse plasma, Example 112 dosed orally at 100 mg/kg (Intermediate 8 = metabolite), time 8 h; read-out: Example 112 and Intermediate 8 concentrations following oral administration

| SMILES | concentration at 8 h [ng/mL] |
| --- | --- |
| C=C(CC(=O)O[C@H](C)CCCCCC)C(=O)OCC(=O)O [Example 112, (R)-2-((2-methylene-4-(octan-2-yloxy)-4-oxobutanoyl)oxy)acetic acid] | 867 |

Same assay, conditions: male, C57BL/6, po; mouse plasma, Example 112 dosed orally at 100 mg/kg (Intermediate 8 = metabolite), time 24 h; read-out: Example 112 and Intermediate 8 concentrations following oral administration

| SMILES | concentration at 24 h [ng/mL] |
| --- | --- |
| C=C(CC(=O)O[C@H](C)CCCCCC)C(=O)OCC(=O)O [Example 112, (R)-2-((2-methylene-4-(octan-2-yloxy)-4-oxobutanoyl)oxy)acetic acid] | < 8 |

Same assay, conditions: mouse pharmacokinetic study, oral

| SMILES | Metabolism in vivo |
| --- | --- |
| C=C(CC(=O)O[C@H](C)CCCCCC)C(=O)OCC(=O)O [Example 112, (R)-2-((2-methylene-4-(octan-2-yloxy)-4-oxobutanoyl)oxy)acetic acid] | undergoes hydrolysis in vivo to form Intermediate 8 |
